This is an account of results in patent US20230149510A1, “METHOD FOR ALLEVIATING ARTHRITIS USING EPIDERMAL GROWTH FACTOR” (Lovin BioMed Co., Ltd., priority 2021, published 2023).

For experiment [1], the system named is articular cartilage of the right knee joint, MIA-induced OA. As to the kind of experiment: Histopathologic analysis of right knee joint tissue (modified Mankin scoring), MIA-induced OA. The note with it: rats; for morphological observation of articular cartilage of the right knee joint: 30 μL intraarticular on day 3 and day 14, day 28, versus pathological control, data not shown. In kind it is in vivo, Sprague Dawley rats. On the procedure:
The Sprague Dawley rats were divided into five groups, including one normal control group, one pathological control group, one comparative group, and two experimental groups (i.e., experimental groups 1 to 2) (n=5 rats in each group).
The right knee joint of the respective rat in the pathological control group, the comparative group, and the experimental groups 1 and 2 was intraarticularly injected with 30 μL of a monosodium iodoacetate (MIA) solution (50 g/L, in 0.9% normal saline). In addition, the right knee joint of the respective rat in the normal control group was intraarticularly injected with 30 μL of 0.9% normal saline. […]
The tissue section was subjected to hematoxylin-eosin staining, and Safranin 0 and fast green staining using a staining protocol well-known to those skilled in the art, and was then observed under an optical microscope (Olympus, CKX41) at a magnification of 200×. Two areas of the respective tissue section were randomly selected and photographed, and pathological changes (such as cartilage damage, chondrocyte loss, and proteoglycan loss) in the respective tissue section was assessed according to the modified Mankin scoring system described in Pauli C. et al. (2012), Osteoarthritis Cartilage, 20:476-485. The degrees of cartilage damage, chondrocyte loss, and proteoglycan loss were scored on a scale from 1 to 5. […]
The data thus obtained were analyzed according to the method described in section 1 of the “General Procedures”.

Experiment [2] relates to Chick type II collagen (CII)-induced rheumatoid arthritis (RA). As to the kind of experiment: Evaluation of RA severity (visual arthritis scoring), collagen-induced RA. In kind it is in vivo, DBA/1 mice. The conditions noted are these: mice, 100 μL intraperitoneal once daily for 20 days, scored every 3 days, 21st to 42nd day, FIG. 6. As for the experimental part:
Female DBA/1 mice (8 weeks old, with a body weight of approximately 20 g) used in the following experiments were purchased from National Laboratory Animal Center, Taipei City, Taiwan. All the experimental mice were housed in an animal room under the following laboratory conditions: an alternating 12-hour light and 12-hour dark cycle, a temperature maintained at 21° C. to 23° C., and a relative humidity maintained at 45% to 60%. Furthermore, water and feed were provided ad libitum for all the experimental mice. All experimental procedures involving the experimental mice were in compliance with the legal provision of the Institutional Animal Care and Use Committee of National Chung Hsing University, Taiwan, and were carried out according to the Guide for the Care and Use of Laboratory Animals of National Institutes of Health (NIH). […]
At the end of the 21st day after the initial immunization, the pathological symptoms (i.e., erythema and edema in the sole joint, ankle, and knee joint) in the respective mouse was assessed according to the visual arthritis scoring system described in Brand D. D. et al. (2007), Nat. […] Thereafter, the abovementioned visual arthritis scoring system was performed every 3 days until the 42nd day after the initial immunization (i.e., each mouse was scored 8 times). The degree of RA severity was scored on a scale from 1 to 8. […]

Consider “hyaluronic acid [HA, reference compound]”, for which the “morphological observation of articular cartilage of the right knee joint” value in experiment [1] is “fewer cracks and a smoother surface, and less chondrocyte and proteoglycan loss were observed”. For the same substance, the “severity of RA (visual arthritis score, scale 1 to 8)” value in experiment [2] was “increased slowly”.

As for “EGF: Epidermal growth factor (Cat. No. 02-108, Joycom Bio-chem) dissolved in PBS, 20 μg/g EGF; given to experimental group 1 (NSDSECPLSHDGYCLHDGVCMYIEALDKYACNCVVGYIGERCQYRDLKWWELR; UniProt P01133 971-1023, looked up)”, the “scale of OA (modified Mankin scoring, scale 1 to 5)” value in experiment [1] (30 μL intraarticular on day 3 and day 14, day 28, FIG. 2) is “significantly lower than that determined in the pathological control group”. Besides, the “morphological observation of articular cartilage of the right knee joint” value in experiment [1] was “fewer cracks and a smoother surface, and less chondrocyte and proteoglycan loss were observed”. Also, the “severity of RA (visual arthritis score, scale 1 to 8)” value in experiment [2] is given as “increased slowly”.
